Test results from patent publication US20230085307A1, “PYRIDAZINONE COMPOUND AND HERBICIDE” (NISSAN CHEMICAL CORPORATION, priority 2019, published 2023).

Experiments:
[1] = tested on: blackgrass; experiment: Test Example 4: herbicidal effect by soil treatment (Table 19, symbol J); type: in vivo, blackgrass (Alopecurus myosuroides); details: amount of applied herbicide 320 g/ha
How it was run: (§1)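 Three weeks of greenhouse growth at 25° C. to 30° C. followed a uniform surface spray of water-diluted emulsion at a predetermined herbicide amount. Seeds had been sown beforehand under about 1.5 cm of sterilized diluvial soil. Grading followed criteria set out in an earlier test.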

[2] = tested on: persian speedwell; experiment: Test Example 4: herbicidal effect by soil treatment (Table 19, symbol R); type: in vivo, Persian speedwell (Veronica persica); details: amount of applied herbicide 320 g/ha
How it was run: as §1

[3] = tested on: barnyard grass; experiment: Test Example 4: herbicidal effect by soil treatment (Table 19, symbol H); type: in vivo, barnyard grass (Echinochloa crus-galli); details: amount of applied herbicide 320 g/ha
How it was run: as §1

[4] = tested on: late watergrass; experiment: Test Example 2: herbicidal activity, application during weed generation under submerged conditions (Table 17, symbol A); type: in vivo, late watergrass (Echinochloa oryzicola); details: AAH 320 g/ha; application during weed generation, submerged conditions
How it was run: (§2)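 Wagner pot, alluvial soil, 4 cm flood; mixed sowing of all species; greenhouse 25° C.–30° C. Emulsifiable formulation, water-diluted to predetermined dose, applied to paddy water at 1–2 leaf stage. Effect rated at 3 wk using the earlier test's scoring criteria.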

[5] = tested on: green foxtail; experiment: Test Example 5: herbicidal effect by foliage application, plastic box (Table 20, symbol G); type: in vivo, green foxtail (Setaria viridis); details: foliage application, 320 g/ha, three weeks after application
How it was run: (§3)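 Plants sown in sterilized diluvial soil and grown 14 days in a greenhouse at 25° C to 30° C, then sprayed on the foliage with the compound's emulsion diluted in water to a predetermined herbicide amount. Injury to weeds and crops scored three weeks after application on a visual rating scale.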

[6] = tested on: barnyard grass; experiment: Test Example 5: herbicidal effect by foliage application, plastic box (Table 20, symbol H); type: in vivo, barnyard grass (Echinochloa crus-galli); details: foliage application, 320 g/ha, three weeks after application
How it was run: as §3

[7] = tested on: velvetleaf; experiment: Test Example 4: herbicidal effect by soil treatment (Table 19, symbol M); type: in vivo, velvetleaf (Abutilon theophrasti); details: amount of applied herbicide 320 g/ha
How it was run: as §1

[8] = tested on: false cleavers; experiment: Test Example 4: herbicidal effect by soil treatment (Table 19, symbol Q); type: in vivo, false cleavers (Galium spurium); details: amount of applied herbicide 320 g/ha
How it was run: as §1

[9] = tested on: barnyard grass; experiment: Test Example 3: herbicidal effect by foliage application, Wagner pot (Table 18, symbol H); type: in vivo, barnyard grass (Echinochloa crus-galli); details: for Herbicidal effect on H (barnyard grass), foliage application: amount of applied herbicide 320 g/ha
How it was run: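 Plants were sown in alluvial soil held under 0.1–0.5 cm standing water and grown 14 days in a greenhouse at 25–30 °C. An emulsifiable formulation, water-diluted to the set dose, was then sprayed onto the foliage, and effects were scored three weeks later using previously defined criteria.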

[10] = tested on: oval-leafed pondweed; experiment: Test Example 2: herbicidal activity, application during weed generation under submerged conditions (Table 17, symbol C); type: in vivo, oval-leafed pondweed (Monochoria vaginalis); details: AAH 320 g/ha; application during weed generation, submerged conditions
How it was run: as §2

[11] = tested on: late watergrass; experiment: Test Example 1: herbicidal activity, application before weed generation under submerged conditions (Table 16, symbol A); type: in vivo, late watergrass (Echinochloa oryzicola); details: amount of applied herbicide 320 g/ha
How it was run: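 Submerged Wagner pots (alluvial soil, 4 cm water) sown with weed seeds and planted with 2.5-leaf rice seedlings; emulsifiable concentrate diluted in water applied to water surface on sowing day. Held in greenhouse at 25-30 °C; injury scored 0-5 by herbicidal rate after three weeks.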

[12] = tested on: blackgrass; experiment: Test Example 5: herbicidal effect by foliage application, plastic box (Table 20, symbol J); type: in vivo, blackgrass (Alopecurus myosuroides); details: foliage application, 320 g/ha, three weeks after application
How it was run: as §3

[13] = tested on: lambsquarters; experiment: Test Example 4: herbicidal effect by soil treatment (Table 19, symbol O); type: in vivo, lambsquarters (Chenopodium album); details: amount of applied herbicide 320 g/ha
How it was run: as §1

[14] = tested on: velvetleaf; experiment: Test Example 5: herbicidal effect by foliage application, plastic box (Table 20, symbol M); type: in vivo, velvetleaf (Abutilon theophrasti); details: foliage application, 320 g/ha, three weeks after application
How it was run: as §3

[15] = tested on: chickweed; experiment: Test Example 5: herbicidal effect by foliage application, plastic box (Table 20, symbol P); type: in vivo, common chickweed (Stellaria media); details: foliage application, 320 g/ha, three weeks after application
How it was run: as §3

[16] = tested on: Italian ryegrass; experiment: Test Example 5: herbicidal effect by foliage application, plastic box (Table 20, symbol K); type: in vivo, Italian ryegrass (Lolium multiflorum); details: foliage application, 320 g/ha, three weeks after application
How it was run: as §3

[17] = tested on: southern crabgrass; experiment: Test Example 4: herbicidal effect by soil treatment (Table 19, symbol F); type: in vivo, southern crabgrass (Digitaria ciliaris); details: amount of applied herbicide 320 g/ha
How it was run: as §1

Row | Structure (SMILES) | J: blackgrass, herbicidal effect grade [1] | R: persian speedwell, herbicidal effect grade [2] | H: barnyard grass, herbicidal effect grade [3] | herbicidal effect rating, A: late watergrass [4] | M: velvetleaf, herbicidal effect grade [7] | Q: false cleavers, herbicidal effect grade [8] | herbicidal effect rating, C: oval-leafed pondweed [10] | Herbicidal effect, A: late watergrass [11] | O: lambsquarters, herbicidal effect grade [13] | herbicidal effect on green foxtail (G) [5] | herbicidal effect on barnyard grass (H) [6] | Herbicidal effect on H (barnyard grass), foliage application [9] | F: southern crabgrass, herbicidal effect grade [17] | herbicidal effect on blackgrass (J) [12] | herbicidal effect on velvetleaf (M) [14] | herbicidal effect on Italian ryegrass (K) [16] | other results
1 | CCCC(=O)Oc1c(C)nn(C)c(=O)c1-c1c(-c2ccc(F)cc2OCC)sc2cc(OCC)ccc12 [3-096] | 3 (Herbicidal rate of 40% or more and less than 70%) | 5 (Herbicidal rate of 90% or more (almost completely withered)) | 0 (Herbicidal rate of 5% or less (almost no effect)) | 4 (Herbicidal rate of 70% or more and less than 90%) | 4 (Herbicidal rate of 70% or more and less than 90%) | 5 (Herbicidal rate of 90% or more (almost completely withered)) | 4 (Herbicidal rate of 70% or more and less than 90%) | 5 (Herbicidal rate of 90% or more (almost completely withered)) | 5 (Herbicidal rate of 90% or more (almost completely withered)) | – | – | – | – | – | – | – | G: green foxtail, herbicidal effect grade [5]: 4 (Herbicidal rate of 70% or more and less than 90%); H: barnyard grass, herbicidal effect grade [6]: 5 (Herbicidal rate of 90% or more (almost completely withered)); herbicidal effect on barnyard grass (H) ([9]; 320 g/ha): 5 (Herbicidal rate of 90% or more (almost completely withered)); J: blackgrass, herbicidal effect grade [12]: 5 (Herbicidal rate of 90% or more (almost completely withered)); M: velvetleaf, herbicidal effect grade [14]: 5 (Herbicidal rate of 90% or more (almost completely withered)); P: chickweed, herbicidal effect grade [15]: 5 (Herbicidal rate of 90% or more (almost completely withered)); K: Italian ryegrass, herbicidal effect grade [16]: 3 (Herbicidal rate of 40% or more and less than 70%)
2 | CCOc1ccc(-c2oc3ccc(F)cc3c2-c2c(O)c(C)nn(C)c2=O)cc1 [9-021] | 4 (Herbicidal rate of 70% or more and less than 90%) | 5 (Herbicidal rate of 90% or more (almost completely withered)) | 4 (Herbicidal rate of 70% or more and less than 90%) | 4 (Herbicidal rate of 70% or more and less than 90%) | 3 (Herbicidal rate of 40% or more and less than 70%) | 0 (Herbicidal rate of 5% or less (almost no effect)) | 4 (Herbicidal rate of 70% or more and less than 90%) | 5 (Herbicidal rate of 90% or more (almost completely withered)) | 4 (Herbicidal rate of 70% or more and less than 90%) | 4 (Herbicidal rate of 70% or more and less than 90%) | 3 (Herbicidal rate of 40% or more and less than 70%) | 3 (Herbicidal rate of 40% or more and less than 70%) | 4 (Herbicidal rate of 70% or more and less than 90%) | 1 (Herbicidal rate of 5% or more and less than 20%) | 5 (Herbicidal rate of 90% or more (almost completely withered)) | 5 (Herbicidal rate of 90% or more (almost completely withered)) | –
3 | CCCOc1ccc(-c2oc3ccc(F)cc3c2-c2c(O)c(C)nn(C)c2=O)cc1 [9-023] | 0 (Herbicidal rate of 5% or less (almost no effect)) | 4 (Herbicidal rate of 70% or more and less than 90%) | 5 (Herbicidal rate of 90% or more (almost completely withered)) | 5 (Herbicidal rate of 90% or more (almost completely withered)) | 3 (Herbicidal rate of 40% or more and less than 70%) | 0 (Herbicidal rate of 5% or less (almost no effect)) | 5 (Herbicidal rate of 90% or more (almost completely withered)) | 5 (Herbicidal rate of 90% or more (almost completely withered)) | 5 (Herbicidal rate of 90% or more (almost completely withered)) | 5 (Herbicidal rate of 90% or more (almost completely withered)) | 5 (Herbicidal rate of 90% or more (almost completely withered)) | 5 (Herbicidal rate of 90% or more (almost completely withered)) | 4 (Herbicidal rate of 70% or more and less than 90%) | 4 (Herbicidal rate of 70% or more and less than 90%) | 5 (Herbicidal rate of 90% or more (almost completely withered)) | 5 (Herbicidal rate of 90% or more (almost completely withered)) | –
4 | CSc1ccc(-c2oc3ccc(F)cc3c2-c2c(O)c(C)nn(C)c2=O)cc1 [9-037] | 0 (Herbicidal rate of 5% or less (almost no effect)) | 4 (Herbicidal rate of 70% or more and less than 90%) | 2 (Herbicidal rate of 20% or more and less than 40%) | 0 (Herbicidal rate of 5% or less (almost no effect)) | 3 (Herbicidal rate of 40% or more and less than 70%) | 0 (Herbicidal rate of 5% or less (almost no effect)) | 2 (Herbicidal rate of 20% or more and less than 40%) | 3 (Herbicidal rate of 40% or more and less than 70%) | 2 (Herbicidal rate of 20% or more and less than 40%) | 5 (Herbicidal rate of 90% or more (almost completely withered)) | 4 (Herbicidal rate of 70% or more and less than 90%) | 5 (Herbicidal rate of 90% or more (almost completely withered)) | 4 (Herbicidal rate of 70% or more and less than 90%) | 2 (Herbicidal rate of 20% or more and less than 40%) | 5 (Herbicidal rate of 90% or more (almost completely withered)) | 5 (Herbicidal rate of 90% or more (almost completely withered)) | –
